pIC50: −log10 of the molar value. One block for each molecule: values may come before it.
Tests used:
[1] = system: NCI-H2228; test: cells; details: Homo sapiens, NCI-H2228, 72 h
Description: Antiproliferative activity against human NCI-H2228 cells assessed as reduction in cell viability measured after 72 hrs by CCK8 assay

[2] = in vitro; details: mouse, liver microsomes
Description: Metabolic stability of the compound in mouse liver microsomes assessed as parent compound remaining at 1 uM preincubated for 5 mins followed by NADPH addition and measured after 60 mins by LC-MS/MS analysis

[3] = Toxicity in BALB/c nu/nu mouse xenografted with human NCI-H2228 cells assessed as body weight loss at 50 mg/kg, po qd for 23 days; type: organism-based; details: in vivo, 552 h, time 23 day
[4] = AUC (0 to t) in human NCI-H2228 cells xenografted BALB/c nu/nu mouse plasma at 50 mg/kg, po qd for 23 days by UPLC-MS/MS analysis; type: ADME, organism-based; parameters: time 23 day, dose 50 mg/kg, route po
[5] = system: NCI-H2228; test: animal or person; details: Mus musculus, NCI-H2228, po, 552 h, read-out: TGI
[6] = in vitro; details: human, liver microsomes
Description: Half life in human liver microsomes at 1 uM preincubated for 5 mins followed by NADPH addition and measured for 60 mins by LC-MS/MS analysis

[7] = Drug uptake in tumor of BALB/c nu/nu mouse xenografted with human NCI-H2228 cells at 50 mg/kg, po qd for 23 days and measured at 6 hrs post-last drug dosage by UPLC-MS/MS analysis; type: ADME, organism-based, Neoplasm; details: time 23 day, read-out: Drug uptake
[8] = Tmax in human NCI-H2228 cells xenografted BALB/c nu/nu mouse plasma at 50 mg/kg, po qd for 23 days by UPLC-MS/MS analysis; type: ADME, organism-based; details: time 23 day
[9] = in vitro; details: mouse, liver microsomes; remark: listed apart in the source
Description: Intrinsic clearance in mouse liver microsomes at 1 uM preincubated for 5 mins followed by NADPH addition and measured for 60 mins by LC-MS/MS analysis

[10] = Cmax in human NCI-H2228 cells xenografted BALB/c nu/nu mouse plasma at 50 mg/kg, po qd for 23 days by UPLC-MS/MS analysis; type: ADME, organism-based; parameters: time 23 day, dose 50 mg/kg, route po
[11] = in vitro; details: human, liver microsomes; remark: listed apart in the source
Description: Metabolic stability of the compound in human liver microsomes assessed as parent compound remaining at 1 uM preincubated for 5 mins followed by NADPH addition and measured after 60 mins by LC-MS/MS analysis

[12] = in vitro; details: mouse, liver microsomes; remark: listed apart in the source
Description: Half life in mouse liver microsomes at 1 uM preincubated for 5 mins followed by NADPH addition and measured for 60 mins by LC-MS/MS analysis

[13] = in vitro; details: human, liver microsomes; remark: listed apart in the source
Description: Intrinsic clearance in human liver microsomes at 1 uM preincubated for 5 mins followed by NADPH addition and measured for 60 mins by LC-MS/MS analysis

[14] = Toxicity in BALB/c nu/nu mouse xenografted with human NCI-H2228 cells at 50 mg/kg, po qd for 23 days; type: organism-based; details: in vivo, 552 h, time 23 day

Compound: Cc1cc(Nc2ncc(Cl)c(Nc3cccc4c3B(O)OC4)n2)c(OC(C)C)cc1C1CCNCC1
pIC50 [1]: 6.21

Compound: COc1cc(N2CCC(N(C)C)CC2)ccc1Nc1ncc(Cl)c(Nc2ccc3c(c2)B(O)OC3)n1
remaining at 1 h, 1 µM [2]: 32.8%
Activity [3]: Non-Toxic
AUC(0-t) at 552 h [4]: 15400 ng·h/mL
inhibition in vivo at 50 mg/kg [5]: 52%
half-life at 1 h, 1 µM [6]: 3.97 h
pIC50 [1]: 6.28
concentration at 552 h [7]: 1200 ng/g
Tmax [8]: 3.6 h
microsomal CLint at 1 h, 1 µM [9]: 36.5 µL/min/mg
Cmax [10]: 3200 ng/mL
remaining at 1 h, 1 µM [11]: 82.6%
half-life at 1 h, 1 µM [12]: 0.633 h
microsomal CLint at 1 h, 1 µM [13]: 5.8 µL/min/mg
Activity [14]: Non-Toxic

Compound: Cc1cc(Nc2ncc(Cl)c(Nc3ccc4c(c3)B(O)OC4)n2)c(OC(C)C)cc1C1CCNCC1
pIC50 [1]: 5.59

Other lines, results leading:

pIC50 [1]: 6.20
Compound: COc1cc(N2CCC(N(C)C)CC2)ccc1Nc1ncc(Cl)c(Nc2cccc3c2B(O)OC3)n1

pIC50 [1]: 6.16
Compound: COc1cc(N2CCC(N3CCN(C)CC3)CC2)ccc1Nc1ncc(Cl)c(Nc2cccc3c2B(O)OC3)n1

pIC50 [1]: 5.95
Compound: COc1cc(N2CCC(N3CCN(C)CC3)CC2)ccc1Nc1ncc(Cl)c(Nc2ccc3c(c2)B(O)OC3)n1

remaining at 1 h, 1 µM [2]: 37.4%
half-life at 1 h, 1 µM [6]: 2.97 h
pIC50 [1]: 6.08
microsomal CLint at 1 h, 1 µM [9]: 31.9 µL/min/mg
remaining at 1 h, 1 µM [11]: 77.8%
half-life at 1 h, 1 µM [12]: 0.725 h
microsomal CLint at 1 h, 1 µM [13]: 7.8 µL/min/mg
Compound: COc1cc(N2CCN(C)CC2)ccc1Nc1ncc(Cl)c(Nc2ccc3c(c2)B(O)OC3)n1

Reference: ChEMBL document CHEMBL5236584, “Design and synthesis of boron-containing ALK inhibitor with favorable in vivo efficacy” (Bioorg Med Chem, 2022)
